The nature of data set [1]: Uric acid excreting and diuretic actions in rats. The data set is classed as in vivo, Wistar rats. The note with it: for response vs control in vivo at 300 mg/kg / response vs control in vivo at 1000 mg/kg: Rattus norvegicus, female Wistar rats, urine collected up to 5 h, relative value with control = 100; for response vs control in vivo at 300 mg/kg: 300 mg/kg oral; for response vs control in vivo at 1000 mg/kg: 1000 mg/kg oral; for urine volume: result in words, summary of Table 1. As for the experimental part:
Three female Wistar rats (4-week old) in each group were administered orally with 300 or 1000 mg/kg of a test compound in a volume of 10 ml/kg as suspended in an aqueous solution of 0.5% carboxymethylcellulose sodium or 5% gum arabic; immediately thereafter, the animals were loaded orally with 25 ml/kg of physiological saline and the urine was collected up to 5 h after the administration of the test compound. The collected urine was immediately measured quantitatively and the urinary concentration of uric acid was measured by a urikase method in accordance with the procedure of Kabasakalian et al. [Kabasakalian, P. et al.: Clin Chem., 19, 522-524 (1973)] and the urinary excretion of uric acid was calculated. […]

The next data set is described as follows: Acute toxicity test. The data set is classed as in vivo. The note with it: oral 100 - 1000 mg/kg, female Wistar rats, observed over 24 h. On the procedure:
Three female Wistar rats (4-week old) in each group were administered orally with 100 - 1000 mg/kg of a test compound in a volume of 10 ml/kg as suspended in an aqueous solution of 0.5% carboxymethylcellulose sodium or 5% gum arabic and were subsequently observed over 24 h. Compounds 1 - 6 were as identified above.

A short description of data set [2]: Uric acid excreting and diuretic actions in rats. The note with it: Rattus norvegicus; 30 mg/kg oral, female Wistar rats, urine collected up to 5 h, relative value with control = 100; read-out: Urine Volume (%). The data set is classed as in vivo.
Setting [3] is: read-out: Urinary excretion of uric acid (%).

Like-named read-outs stand apart in the source and are kept apart here.

As to `O=C1CN(S(=O)(=O)c2cc(Cl)ccc2Cl)C(=O)N1` [Compound 6, 1-(2,5-dichlorophenylsulfonyl)hydantoin], in data set [1] (setting [3]), the response vs control in vivo at 300 mg/kg is 96% and the response vs control in vivo at 1000 mg/kg was determined as 151%. In data set [1] (read-out: Urine Volume (%)), the response vs control in vivo at 300 mg/kg was 151% and the response vs control in vivo at 1000 mg/kg was 223%. For the same compound, the “Acute toxicity (Minimal dose causing death: mg/kg)” value (from here on “Acute toxicity”) in the data set “Acute toxicity test” is >1000 (no death case at 1000) mg/kg.

`O=C1CN(S(=O)(=O)C2CCCCC2)C(=O)N1` [Compound 1, 1-(cyclohexylsulfonyl)hydantoin]: the response vs control in vivo at 300 mg/kg in data set [1] (setting [3]) turned out to be 116%; in data set [1] (read-out: Urine Volume (%)) it was 96%. For the same compound, the response vs control in vivo at 1000 mg/kg in data set [1] (setting [3]) came out at 155%; in data set [1] (read-out: Urine Volume (%)) it was 124%. Further, the “Acute toxicity” value in “Acute toxicity test” is listed as >1000 (no death case at 1000) mg/kg.

For `NS(=O)(=O)c1cc(C(=O)O)c(NCc2ccco2)cc1Cl` [Furosemide, furosemide, reference compound], the response vs control in vivo at 30 mg/kg in data set [2] is 215%. Also, the urine volume result in data set [1] is “an increase in the urine volume was observed”.

Turning to `O=C1CN(S(=O)(=O)C2Cc3ccccc3C2)C(=O)N1` [Compound 5, 1-(indan-2-ylsulfonyl)hydantoin], in data set [1] (setting [3]), the response vs control in vivo at 300 mg/kg turned out to be 102% and the response vs control in vivo at 1000 mg/kg stood at 144%. Besides, in data set [1] (read-out: Urine Volume (%)), the response vs control in vivo at 300 mg/kg is 135% and the response vs control in vivo at 1000 mg/kg came to 144%. Moreover, the “Acute toxicity” value in “Acute toxicity test” is on record as >1000 (no death case at 1000) mg/kg.

Take `CCCN(CCC)S(=O)(=O)c1ccc(C(=O)O)cc1` [Probenecid, probenecid, reference compound]: in data set [1] (setting [3]), the response vs control in vivo at 300 mg/kg is 78% and the response vs control in vivo at 1000 mg/kg came out at 167%. Moreover, in data set [1] (read-out: Urine Volume (%)), the response vs control in vivo at 300 mg/kg worked out at 60% and the response vs control in vivo at 1000 mg/kg came to 20%. The urine volume entry in data set [1] is reported as “significantly decreased the urine volume”.

As for `O=C1CN(S(=O)(=O)C2CCCCCCC2)C(=O)N1` [Compound 3, 1-(cyclooctylsulfonyl)hydantoin], in data set [1] (setting [3]), the response vs control in vivo at 300 mg/kg turned out to be 103% and the response vs control in vivo at 1000 mg/kg was 245%. Further, in data set [1] (read-out: Urine Volume (%)), the response vs control in vivo at 300 mg/kg was found to be 109% and the response vs control in vivo at 1000 mg/kg was determined as 95%. The “Acute toxicity” value in “Acute toxicity test” was >1000 (no death case at 1000) mg/kg.

With `O=C1CN(S(=O)(=O)C2CCCCCC2)C(=O)N1` [Compound 2, 1-(cycloheptylsulfonyl)hydantoin], the response vs control in vivo at 300 mg/kg in data set [1] (setting [3]) was 152%; in data set [1] (read-out: Urine Volume (%)), 159%. Further, the response vs control in vivo at 1000 mg/kg in data set [1] (setting [3]) is 256%; in data set [1] (read-out: Urine Volume (%)), 170%. Moreover, the “Acute toxicity” value in the data set “Acute toxicity test” is >1000 (no death case at 1000) mg/kg.

Take `Cc1cc(S(=O)(=O)N2CC(=O)NC2=O)c(C)s1` [Compound 4, 1-(2,5-dimethylthien-3-ylsulfonyl)hydantoin]: the response vs control in vivo at 300 mg/kg in data set [1] (setting [3]) was found to be 104%; in data set [1] (read-out: Urine Volume (%)), 111%. Moreover, the response vs control in vivo at 1000 mg/kg is 145% in data set [1] (setting [3]) and 207% in data set [1] (read-out: Urine Volume (%)). The “Acute toxicity” value in “Acute toxicity test” is reported as >1000 (no death case at 1000) mg/kg.

The values are drawn from patent EP0788796A1, “URICOSURIC AGENT” (priority 1995, dated 1997).
